Laboratory results reported in patent EP1534672B1, “RETINOL DERIVATIVES, THEIR USE IN THE TREATMENT OF CANCER AND FOR POTENTIATING THE EFFICACY OF OTHER CYTOTOXIC AGENTS” (priority 2002, dated 2004).
Several values for one entry are separate records, joined by “and”; a condition that tells them apart may be missing. Equal entries are not always repeated. Structures can show the parent of a compound that is named as a salt. Where two headings read alike, the source gives them in different places. Marks after values point to notes of the source that are not given here.

Test system: Human Breast Adenocarcinoma Cell Line MDA-MB-231
Assay: Drug cytotoxicity testing (viable cell count, trypan blue exclusion, cell growth inhibition)
Format: cell-based
Conditions: for IC50: calculated from three concentrations, read-out: IC50 mol/L (a)
Procedure: MDA-MB-231 cells were propagated in MEM culture medium with 2 mM L-glutamine, 10% heat-inactivated fetal bovine serum (FBS) and antibiotics. DU 145 cells were cultured in MEM culture medium containing 2 mM L-glutamine, 1 mM sodium pyruvate, 10% FBS and antibiotics. SKOV-3 cells were cultured in McCoy's 5A culture medium, supplemented with 1,5 mM L-glutamine, 10% FBS and antibiotics. A549 cells were cultured in Ham's F-12 culture medium with 1 mM L-glutamine, 10% FBS and antibiotics. All media and supplements were purchased from Sigma-Aldrich (St.Louis, MO, USA). Cell propagation of all lines was carried out in Falcon™ 25 cm^2 cultivation flasks (Becton Dickinson Labware).
Drug cytotoxicity testing was carried out with using Falcon™ 96-well cultivation plates for adherent cells (Becton Dickinson Labware). These plates were seeded by cells either at 12 × 10^3 MDA-MB-231 cells/well, or at 12 × 10^3 DU 145 cells/well, or at 14 × 10^3 SKOV-3 cells/well, or at 10 × 10^3 A549 cells/well in a volume of 200 µL/well.
The cell cultures in cultivation plates were allowed to adhere for 24 hour of incubation. On day 1 after cell seeding, 2 µL solutions of the drugs to be tested in medium with 5% FBS was added to the cultures. In the control cultures, 2 µL of medium with 5% FBS was added as solvent control. The cells were incubated for 2 consecutive days. At the end of the incubation period adherent cells were detached by trypsinization and the number of viable cells was counted using trypan blue exclusion test and a hemocytometer. All data were derived from an average of three determinations each in six replicates. The results were expressed as mean cell number ± SE and the differences between control and test series evaluated by means of Student's t-test. The drug cytotoxicity was evaluated based on the extent of cell growth inhibition. The cell growth inhibition of the tested drugs was calculated as follows: Cell growth inhibition,% = (Control-TestSeries)/(Control) × 100 [formula]
In the case of comparative evaluation of cytotoxicity of the inventive compounds themselves and the formulation related to consecutive dilutions of their initial solutions before adding to the cultures, 2 µL solutions of the drugs to be tested in medium with 5% FBS, in normal saline and in saline with 2,3 mM CaCl2 were added to the cultures. In control cultures, 2 µL of medium with 5% FBS, normal saline and saline with 2,3 mM CaCl2 were added as solvent controls (negative controls). […] Therefore an average of negative controls was calculated. […] Therefore an average of positive controls was calculated (for each antibiotic).

[1] = cytotoxic drug alone 10^-7 mol/L, average of positive controls in medium with 5% FBS, normal saline and saline with 2,3 mM CaCl2, hydrochloride
[2] = cytotoxic drug alone 10^-8 mol/L, average of positive controls in medium with 5% FBS, normal saline and saline with 2,3 mM CaCl2, hydrochloride
[3] = cytotoxic drug alone 10^-9 mol/L, average of positive controls in medium with 5% FBS, normal saline and saline with 2,3 mM CaCl2, hydrochloride
[4] = Homo sapiens, MDA-MB-231, 48 h, compound alone, final concentration 10^-7 mol/L, working solutions in MEM with 5% FBS, two days, read-out: cell growth inhibition
[5] = Homo sapiens, MDA-MB-231, 48 h, compound alone, final concentration 10^-8 mol/L, working solutions in MEM with 5% FBS, two days, read-out: cell growth inhibition
[6] = Homo sapiens, MDA-MB-231, 48 h, compound alone, final concentration 10^-9 mol/L, working solutions in MEM with 5% FBS, two days, read-out: cell growth inhibition
[7] = compound alone, final concentration 10^-7 mol/L, working solutions in MEM with 5% FBS, two days
[8] = compound alone, final concentration 10^-8 mol/L, working solutions in MEM with 5% FBS, two days
[9] = compound alone, final concentration 10^-9 mol/L, working solutions in MEM with 5% FBS, two days

`COc1cccc2c1C(=O)c1c(O)c3c(c(O)c1C2=O)C[C@@](O)(C(=O)CO)C[C@@H]3O[C@H]1C[C@H](N)[C@H](O)[C@H](C)O1` [Doxorubicin, (8S,10S)-10-[(3-amino-2,3,6-trideoxy-α-L-lyxo-hexopyranosyl)oxy]-8-glycolyl-7,8,9,10-tetrahydro-6,8,11-trihydroxy-1-methoxy-5,12-naphtacenedione hydrochloride, reference compound] was tested, and the IC50 (Homo sapiens, MDA-MB-231, as concentration of cytotoxic drug, alone or in formulation at molar ratio 1:6, medium with 5% FBS) was 76 nM, the inhibition at 0.1 µM (Homo sapiens, MDA-MB-231, cytotoxic drug 10^-7 mol/L (100 nM), alone or in formulation at molar ratio 1:6, working solutions in medium with 5% FBS, read-out: Cell Growth Inhibition, %) was 53.6% and the inhibition at 0.01 µM (Homo sapiens, MDA-MB-231, cytotoxic drug 10^-8 mol/L, alone or in formulation at molar ratio 1:6, working solutions in medium with 5% FBS, read-out: Cell Growth Inhibition, %) was 26.4%. It also gave an inhibition at 0.001 µM (Homo sapiens, MDA-MB-231, cytotoxic drug 10^-9 mol/L, alone or in formulation at molar ratio 1:6, working solutions in medium with 5% FBS, read-out: Cell Growth Inhibition, %) of 13.8%, an inhibition at 0.1 µM (Homo sapiens, MDA-MB-231, cytotoxic drug alone 10^-7 mol/L, average of positive controls in medium with 5% FBS, normal saline and saline with 2,3 mM CaCl2, read-out: Cell Growth Inhibition, %) of 55.4% and an inhibition at 0.01 µM (Homo sapiens, MDA-MB-231, cytotoxic drug alone 10^-8 mol/L, average of positive controls in medium with 5% FBS, normal saline and saline with 2,3 mM CaCl2, read-out: Cell Growth Inhibition, %) of 29.4%. For the same compound, the inhibition at 0.001 µM (Homo sapiens, MDA-MB-231, cytotoxic drug alone 10^-9 mol/L, average of positive controls in medium with 5% FBS, normal saline and saline with 2,3 mM CaCl2, read-out: Cell Growth Inhibition, %) was 19.4%, the IC50 (Homo sapiens, MDA-MB-231, cytotoxic drug alone, average of positive controls) was 62 nM and the “Tumor Cell Number, × 10^3” value (cytotoxic drug 10^-7 mol/L (100 nM), alone or in formulation at molar ratio 1:6, working solutions in medium with 5% FBS, hydrochloride) was 26.2 ± 1.29 × 10^3. The “Cell Growth Inhibition, %” value (cytotoxic drug 10^-7 mol/L (100 nM), alone or in formulation at molar ratio 1:6, working solutions in medium with 5% FBS, hydrochloride, 0.1 µM) was 53.0* %, the “Tumor Cell Number, × 10^3” value (cytotoxic drug 10^-7 mol/L (100 nM), alone or in formulation at molar ratio 1:6, working solutions in medium with 5% FBS, listed as doxorubicin, hydrochloride) was 23.6 ± 1.02 × 10^3 and the “Tumor Cell Number, × 10^3” value (cytotoxic drug 10^-8 mol/L, alone or in formulation at molar ratio 1:6, working solutions in medium with 5% FBS) was 41.0 ± 1.50 × 10^3. The “Tumor Cell Number, × 10^3” value (cytotoxic drug 10^-9 mol/L, alone or in formulation at molar ratio 1:6, working solutions in medium with 5% FBS) was 48.0 ± 1.85 × 10^3, the “Cell Growth Inhibition, %” value [1] was 55.3* % and the “Tumor Cell Number, × 10^3” value [1] was 25.5±0.71 × 10^3 and 25.2±1.56 × 10^3. The “Cell Growth Inhibition, %” value [2] was 27.3 * %, the “Tumor Cell Number, × 10^3” value [2] was 40.4±1.65 × 10^3 and 41.0±0.96 × 10^3 and the “Cell Growth Inhibition, %” value [3] was 19.1* %. For the same compound, the “Tumor Cell Number, × 10^3” value [3] was 46.1±2.07 × 10^3 and 45.6±1.38 × 10^3 and the IC50 (cytotoxic drug alone, average of positive controls, hydrochloride) was 64 nM.
Compound `CCOC(=O)[C@H](CS(=O)(=O)O)NC(=O)/C=C(C)/C=C/C=C(C)/C=C/C1=C(C)CCCC1(C)C` [compound I-1b, N-(all-trans-retlnoyl)-L-cysteic acid ethyl ester] has an inhibition at 0.1 µM [4] of 46.7%, an inhibition at 0.01 µM [5] of 44.2% and an inhibition at 0.001 µM [6] of 39.2%. For the same compound, the “number of viable cells” value [7] was 30.5 ± 1.82 × 10^3, the “number of viable cells” value [8] was 31.9 ± 2.16 × 10^3 and the “number of viable cells” value [9] was 34.8 ± 2.41 × 10^3.
In the case of `CC1=C(/C=C/C(C)=C/C=C/C(C)=C/C(=O)N[C@@H](CS(=O)(=O)O)C(=O)OC(C)C)C(C)(C)CCC1` [compound I-1c, N-(all-trans-retinoyl)-Lwcysteic acid isopropyl ester], the inhibition at 0.01 µM [5] is reported as 46.9%, the inhibition at 0.001 µM [6] is reported as 40.6% and the “number of viable cells” value [7] is reported as 28.9 ± 1.52 × 10^3. The “number of viable cells” value [8] was 30.4 ± 1.79 × 10^3 and the “number of viable cells” value [9] was 34.0 ± 2.13 × 10^3.
Work on `CCCOC(=O)[C@H](CS(=O)(=O)O)NC(=O)/C=C(C)/C=C/C=C(C)/C=C/C1=C(C)CCCC1(C)C` [compound I-1d, N-(all-trans-retinoyl)-L-cysteic acid propyl ester] yielded an inhibition at 0.1 µM [4] of 54.8%, an inhibition at 0.01 µM [5] of 50.7% and an inhibition at 0.001 µM [6] of 45.2%. The “number of viable cells” value [7] was 24.1 ± 1.46 × 10^3, the “number of viable cells” value [8] was 26.3 ± 1.67 × 10^3 and the “number of viable cells” value [9] was 29.2 ± 1.89 × 10^3.
With `CCCCOC(=O)[C@H](CS(=O)(=O)O)NC(=O)/C=C(C)/C=C/C=C(C)/C=C/C1=C(C)CCCC1(C)C` [compound I-1e, N-(all-trans-retinoyl)-L-cysteic acid butyl ester] the inhibition at 0.1 µM [4] was 53.5%, the inhibition at 0.01 µM [5] was 49.2% and the inhibition at 0.001 µM [6] was 44.7%. The “number of viable cells” value [7] was 24.8 ± 1.34 × 10^3, the “number of viable cells” value [8] was 27.1 ± 1.75 × 10^3 and the “number of viable cells” value [9] was 29.5 ± 2.18 × 10^3.
Compound `CNC(=O)[C@H](CS(=O)(=O)O)NC(=O)/C=C(C)/C=C/C=C(C)/C=C/C1=C(C)CCCC1(C)C` [compound I-1g, N-(all-trans-retinoyl)-L-cysteic acid methylamide] has an inhibition at 0.01 µM [5] of 35.9%, an inhibition at 0.001 µM [6] of 27.8% and an inhibition at 0.1 µM (Homo sapiens, MDA-MB-231, compound alone 10^-7 mol/L, in B (normal saline), read-out: cell growth inhibition) of 22.8%. The inhibition at 0.1 µM (Homo sapiens, MDA-MB-231, compound alone 10^-7 mol/L, read-out: Cell growth inhibition in A compared to that in B was increased by) was 26.5%, the inhibition at 0.01 µM (Homo sapiens, MDA-MB-231, compound alone 10^-8 mol/L, in A (saline with […] CaCl2), read-out: cell growth inhibition) was 36.7% and the inhibition at 0.01 µM (Homo sapiens, MDA-MB-231, compound alone 10^-8 mol/L, in B (normal saline), read-out: cell growth inhibition) was 14.2%. The inhibition at 0.01 µM (Homo sapiens, MDA-MB-231, compound alone 10^-8 mol/L, read-out: Cell growth inhibition in A compared to that in B was increased by) was 26.3%, the inhibition at 0.001 µM (Homo sapiens, MDA-MB-231, compound alone 10^-9 mol/L, in A (saline with […] CaCl2), read-out: cell growth inhibition) was 28.5% and the inhibition at 0.001 µM (Homo sapiens, MDA-MB-231, compound alone 10^-9 mol/L, in B (normal saline), read-out: cell growth inhibition) was 4.2%. The inhibition at 0.001 µM (Homo sapiens, MDA-MB-231, compound alone 10^-9 mol/L, read-out: Cell growth inhibition in A compared to that in B was increased by) was 25.4%, the “number of viable cells” value (compound alone 10^-7 mol/L, in B (normal saline)) was 43.1 ± 2.03 × 10^3 and the “number of viable cells” value (compound alone 10^-8 mol/L, in B (normal saline)) was 47.9 ± 2.86 × 10^3. For the same compound, the “number of viable cells” value (compound alone 10^-9 mol/L, in B (normal saline)) was 53.5 ± 3.21 × 10^3, the “cell growth inhibition reached when increasing the concentration” value (compound alone (sodium salt), concentration range 10^-9 to 10^-7 M) was ~43% and the “number of viable cells” value [7] was 32.1 ± 1.72 × 10^3. The “number of viable cells” value [8] was 36.2 ± 1.95 × 10^3, the “number of viable cells” value [9] was 40.8 ± 2.14 × 10^3 and the “cell growth inhibition reached on increase of the concentration, in (B)” value (sodium salt, range 10^-9 to 10^-7 M, dilution in normal saline (B)) was ~23%.
